Series [1] has as its system HCV replicon (pSGR-399LM) in Huh7 cells. The series can be described thus: Inhibitory activity in the HCV replicon system (Renilla luciferase). Type of series: cell-based. The conditions noted are these: Hepatitis C virus, Huh-7, pSGR-399LM replicon Huh7 cells, 72 hr. As for the experimental part:
The Inhibitory Activity of Compounds in the HCV Replicon System
HCV replicon cell-line: The Huh7 cells were transfected with pSGR-399LM replicon DNA and cultured in the DMEM containing 10% FBS and 0.5 mg/mL G418. The cells were split at 1:3 to 1:5 every 3-4 days. The transfected cells were seeded in 96-well plates and cultured at 37° C., 5% CO2 for 24 hr.
Treatment with samples: To the HCV replicon Huh7 cells-line were added different concentration of the samples (i.e. compound Ik, wherein k=1, 2, 3 . . . 42), the each concentration for duplicate, and set no sample control wells. The concentration started at 400 nM, with quarter dilution to form five different concentrations of samples, that is 400 nM, 100 nM, 25 nM, 6.25 nM and 1.56 nM. The samples were added separately, and continued to incubated for 72 hr.
Fluorescence detection: After 72 hr treatment with sample, the cells were lysed and added with Renilla luciferase substrate to detect luminescent signal. The relative luminescent unit (RLU) in the luminometer was read out and used to calculate the inhibition rate of HCV.

Series [2] relates to HCV (J399EM virus) in Huh7.5.1 cells. The series is described as follows: Inhibition of HCV replication in HCV infected human hepatocellular carcinoma cells (Huh7.5.1), HCV-EGFP fluorescence. Type of series: cell-based. The conditions noted are these: Hepatitis C virus, Huh-7.5.1, 72 h, read-out: HCV infected human hepatocellular carcinoma cells in vitro EC50(nM). As for the experimental part:
In Vitro Inhibitory Activity of Compounds in HCV Replication in HCV Infected Human Hepatocellular Carcinoma Cells (Huh7.5.1)
The preparation of Huh7.5.1cells: Huh 7.5.1 cells were seeded at a 96-well plate with 37 and 5% CO2 for 24 hours incubation.
Virus infection: Using the J399EM virus supernatants (moi≈0.1) to infect Huh7.5.1cells. At the same time, the no virus infected cell will be set up as the control. After 8 hours virus infection, the virus will be washed out with PBS.
Drug treatment: The different doses of samples (i.e. the compound Ik, wherein k=1, 2, 3, . . . 42) were added in J399EM infected Huh7.5.1 cells, the each dose for duplicate. At the same time the no sample added in wells will be set up as the control. The test dose of sample is starting from 25 nM or 400 nM, with quarter dilution, 5 doses of sample will be added in the test wells, respectively, then continued for 72 hours incubation.
HCV-EGFP fluorescence detection: After samples treatment for 72 hours, the autofluorescence of HCV-EGFP were measured by the luminometer with excitation of 488 nm, and emission of 516 nm. The related fluorescence unit (RFU) of samples will be read out and used for calculating the inhibitory rates of compounds in HCV replication.

The nature of series [3]: Pharmacokinetic evaluation in SD rats after oral administration. Type of series: in vivo, Sprague-Dawley (SD) rats. The conditions noted are these: oral gavage, 10 mg/kg; for bioavailability: read-out: F (absolute bioavailability). As for the experimental part:
Pharmacokinetic Evaluation of the Compounds of this Invention
Twenty healthy male Sprague-Dawley (SD) rats with body weight of 200-220 g were divided into 5 groups randomly and each group contains 4 rats. Before the experiment, rats were fasted for 12 h with free access to water. The compound Ik (wherein k=2, 5, 18, 34 or 38) of this invention was administered by oral gavage at a dose level of 10 mg/kg. The compounds were prepared with 0.5% CMC-Na containing 1% Tween 80. The dose volume was 10 mL/kg. The rats were afforded unlimited access to food after 2 h of dosing 0.3 mL of blood samples were collected at 0.25 h, 0.5 h, 1.0 h, 2.0 h, 3.0 h, 5.0 h, 7.0 h, 9.0 h, and 24.0 h, respectively, from postocular venous plexes of the rat. The blood samples were placed in heparin-containing tubes and immediately centrifuged at 11000 rpm for 5 min. Plasma was separated and refrigerated at −20° C. until analysis. LC-MS/MS methods were used to quantify plasma concentrations of the compound Ik.

Setting [4] is: male, Sprague-Dawley, rat, plasma.
[5] abbreviates: male, Sprague-Dawley, rat, plasma, po, read-out: Cmax.
[6] abbreviates: male, Sprague-Dawley, rat, plasma, po.

Where two headings read alike, the source gives them in different places. Bounds are passed on as bounds.

As for `COc1ccc2oc3c4ccccc4c(O[C@@H]4C[C@H]5C(=O)N[C@]6(C(=O)NS(=O)(=O)C7CC7)C[C@H]6/C=C\CCCCC[C@H](NC(=O)OC(C)(C)C)C(=O)N5C4)nc3c2c1` [Compound 2, tert-butyl(2R,6S,13aS,14aR,16aS,Z)-14a-(cyclopropylsulfonylcarbamoyl)-2-(8-methoxybenzofuro[3,2-c]isoquinolin-5-yloxy)-5,16-dioxo-1,2,3,5,6,7,8,9,10,11,13a,14,14a,15,16,16a-hexadecahydrocyclopropa[e]pyrrolo[1,2-a][1,4]diazacyclopentadecin-6-yl carbamate], the concentration giving a half-maximal response (EC50) (in general, the concentration at which the effect is half-maximal) in series [1] was < 0.1 µM. The 50% effective concentration (EC50) in series [2] is < 100 nM. For the same molecule, in series [3] (setting [4]), the AUC(0-inf) (in general, the area under the concentration-time curve extrapolated to infinity) was found to be 1.78 ± 0.0537 µg·h/mL; the AUC(0-t) (commonly exposure summed from dosing to a finite time, without extrapolation to infinity) turned out to be 0.158 ± 0.0498 µg·h/mL; the time of peak concentration (Tmax) (as a rule, the time from dosing to the highest level) was 24 ± 6 min; the half-life (usually how long it takes for the measured level to halve) was 186 ± 78 min. In series [3] (setting [5]), the peak concentration (Cmax) – broadly, the peak of the concentration-time curve – was 0.0497 ± 0.011 µg/mL. For the same molecule, the bioavailability (usually dose-corrected exposure relative to a reference, in per cent) in series [3] (setting [6]) came out at 1.8%.
Consider `CC(C)(C)OC(=O)N[C@H]1CCCCC/C=C\[C@@H]2C[C@@]2(C(=O)NS(=O)(=O)C2CC2)NC(=O)[C@@H]2C[C@@H](Oc3nc4c5cc(Cl)ccc5oc4c4ccccc34)CN2C1=O` [Compound 5], for which, in series [1], the EC50 is < 0.1 µM. Moreover, in series [2], the EC50 is < 100 nM. Besides, in series [3] (setting [4]), the AUC(0-inf) was determined as 3.03 ± 1.71 µg·h/mL, the AUC(0-t) was 2.88 ± 1.72 µg·h/mL, the Tmax was found to be 75 ± 30 min and the half-life is 209 ± 65.4 min. Moreover, in series [3] (setting [5]), the Cmax came to 0.56 ± 0.139 µg/mL. In series [3] (setting [6]), the bioavailability stood at 17.1%.
As for `COc1ccc2c(c1)c(O[C@@H]1C[C@H]3C(=O)N[C@]4(C(=O)NS(=O)(=O)C5CC5)C[C@H]4/C=C\CCCCC[C@H](NC(=O)OC(C)(C)C)C(=O)N3C1)nc1c3ccccc3oc21` [Compound 18], the EC50 in series [1] is < 0.1 µM. For the same molecule, in series [2], the EC50 was < 100 nM. Also, in series [3] (setting [4]), the AUC(0-inf) was found to be 3.27 ± 0.303 µg·h/mL, the AUC(0-t) came out at 3.22 ± 0.336 µg·h/mL, the Tmax came out at 102 ± 36 min and the half-life was 228 ± 60 min. Besides, the Cmax in series [3] (setting [5]) turned out to be 0.623 ± 0.0607 µg/mL. In addition, the bioavailability in series [3] (setting [6]) is ~36.1%. This molecule registered a Cmax in series [3] (listed as I18, 10 mg/kg) of 0.6233 ± 0.0607 µg/mL.
With `C=C[C@@H]1C[C@]1(NC(=O)[C@@H]1C[C@@H](Oc2cc(-c3csc(C(C)(C)O)n3)nc3c2oc2ccc(OC)c(Br)c23)CN1C(=O)[C@@H](NC(=O)OC(C)(C)C)C(C)(C)C)C(=O)NS(=O)(=O)C1CC1` [Compound 26], the results for the EC50 in series [1] and in series [2] were < 0.1 µM and < 100 nM, respectively.
`C=C[C@@H]1C[C@]1(NC(=O)[C@@H]1C[C@@H](Oc2cc(-c3ccccc3)nc3c2oc2ccc(OC)c(Br)c23)CN1C(=O)[C@@H](NC(=O)OC(C)(C)C)C(C)(C)C)C(=O)NS(=O)(=O)C1CC1` [Compound 27]: the concentration giving a half-maximal response (EC50) in series [1] is < 0.1 µM; in series [2] it was < 100 nM.
The matching figures for `C=C[C@@H]1C[C@]1(NC(=O)[C@@H]1C[C@@H](Oc2cc(-c3ccccc3)nc3c2oc2ccc(OC)c(Br)c23)CN1C(=O)[C@@H](NC(=O)OC1CCCC1)C(C)(C)C)C(=O)NS(=O)(=O)C1CC1` [Compound 28]: < 0.1 µM and < 100 nM.
As for `C=C[C@@H]1C[C@]1(NC(=O)[C@@H]1C[C@@H](Oc2nc3c4ccccc4oc3c3ccc(Cl)cc23)CN1C(=O)[C@@H](NC(=O)OC(C)(C)C)C(C)(C)C)C(=O)NS(=O)(=O)C1CC1` [Compound 29], the EC50 in series [1] is < 0.1 µM; in series [2] it was < 100 nM.
As for `C=C[C@@H]1C[C@]1(NC(=O)[C@@H]1C[C@@H](Oc2nc3c4ccccc4oc3c3ccc(Br)cc23)CN1C(=O)[C@@H](NC(=O)OC(C)(C)C)C(C)(C)C)C(=O)NS(=O)(=O)C1CC1` [Compound 30], the half-maximal effective concentration (EC50) was in the range of 0.1 to 1 µM in series [1] and 100 to 1000 nM in series [2].
For the molecule `C=C[C@@H]1C[C@]1(NC(=O)[C@@H]1C[C@@H](Oc2nc3c4ccccc4oc3c3ccc(OC)cc23)CN1C(=O)[C@@H](NC(=O)OC(C)(C)C)C(C)(C)C)C(=O)NS(=O)(=O)C1CC1` [Compound 31], the EC50 in series [1] is 0.1 to 1 µM; in series [2], 100 to 1000 nM.
As to `C=C[C@@H]1C[C@]1(NC(=O)[C@@H]1C[C@@H](Oc2nc3c4cc(OC)ccc4oc3c3ccc(Cl)cc23)CN1C(=O)[C@@H](NC(=O)OC(C)(C)C)C(C)(C)C)C(=O)NS(=O)(=O)C1CC1` [Compound 32], the EC50 was < 0.1 µM in series [1] and 100 to 1000 nM in series [2].
In the same order, the values of `C=C[C@@H]1C[C@]1(NC(=O)[C@@H]1C[C@@H](Oc2nc3c4cc(Cl)ccc4oc3c3ccc(Cl)cc23)CN1C(=O)[C@@H](NC(=O)OC(C)(C)C)C(C)(C)C)C(=O)NS(=O)(=O)C1CC1` [Compound 33] are 0.1 to 1 µM and 100 to 1000 nM.
In the case of `C=C[C@@H]1C[C@]1(NC(=O)[C@@H]1C[C@@H](Oc2cc(-c3csc(NC(=O)C(C)C)n3)nc3c2oc2ccc(OC)c(Cl)c23)CN1C(=O)[C@@H](NC(=O)OC(C)(C)C)C(C)(C)C)C(=O)NS(=O)(=O)C1CC1` [Compound 34], in series [1], the concentration for a half-maximal effect (EC50) is < 0.1 µM. The concentration for a half-maximal effect (EC50) in series [2] is < 100 nM. Besides, in series [3] (setting [4]), the area under the curve AUC(0-inf) was 0.011 ± 0.0011 µg·h/mL, the AUC(0-t) came out at 0.0096 ± 0.0009 µg·h/mL, the Tmax was found to be 24 ± 12 min and the half-life was 30 ± 18 min. For the same molecule, the Cmax in series [3] (setting [5]) was determined as 0.0114 ± 0.0043 µg/mL. Also, the bioavailability in series [3] (setting [6]) was determined as 1.6%.
Take `C=C[C@@H]1C[C@]1(NC(=O)[C@@H]1C[C@@H](Oc2cc(-c3csc(NC(=O)C(C)C)n3)nc3c2oc2ccc(OC)c(Br)c23)CN1C(=O)[C@@H](NC(=O)OC(C)(C)C)C(C)(C)C)C(=O)NS(=O)(=O)C1CC1` [Compound 35]: the EC50 is < 0.1 µM in series [1] and < 100 nM in series [2].
Regarding `O=C1N[C@]2(C(=O)NS(=O)(=O)C3CC3)C[C@H]2/C=C\CCCCC[C@H](CC(=O)N2CCCCC2)C(=O)N2C[C@H](Oc3cc(-c4ccccc4)nc4c3oc3ccccc34)C[C@@H]12` [Compound 36], the EC50 was < 0.1 µM in series [1] and 100 to 1000 nM in series [2].
For the molecule `C=C[C@@H]1C[C@]1(NC(=O)[C@@H]1C[C@@H](Oc2cc(-c3ccccc3)nc3c2oc2ccccc23)CN1C(=O)[C@@H](CC(=O)N1CCCCC1)C(C)(C)C)C(=O)NS(=O)(=O)C1CC1` [Compound 37], the EC50 in series [1] fell in the range of 0.1 to 1 µM; in series [2] it was 100 to 1000 nM.
As for `C=C[C@@H]1C[C@]1(NC(=O)[C@@H]1C[C@@H](Oc2cc(-c3ccccc3)nc3c2oc2ccccc23)CN1C(=O)[C@@H](NC(=O)OC(C)(C)C)C(C)(C)C)C(=O)NS(=O)(=O)C1CC1` [Compound 38], the EC50 in series [1] is < 0.1 µM. Moreover, in series [2], the concentration giving a half-maximal response (EC50) was < 100 nM. Moreover, in series [3] (setting [4]), the AUC(0-inf) is 0.243 ± 0.081 µg·h/mL, the AUC(0-t) worked out at 0.239 ± 0.081 µg·h/mL, the Tmax amounted to 37.8 ± 15 min and the half-life is 43.2 ± 18 min. Besides, in series [3] (setting [5]), the Cmax stood at 0.15 ± 0.042 µg/mL. Besides, the bioavailability in series [3] (setting [6]) came out at 8.7%.
For `C=C[C@@H]1C[C@]1(NC(=O)[C@@H]1C[C@@H](Oc2cc(-c3cnc(C(C)(C)O)s3)nc3c2oc2ccc(OC)c(Cl)c23)CN1C(=O)[C@@H](NC(=O)OC(C)(C)C)C(C)(C)C)C(=O)NS(=O)(=O)C1CC1` [Compound 39], the results for the EC50 in series [1] and in series [2] were < 0.1 µM and < 100 nM, respectively.
Turning to `C=C[C@@H]1C[C@]1(NC(=O)[C@@H]1C[C@@H](Oc2cc(-c3cnc(C(C)(C)O)s3)nc3c2oc2ccc(OC)c(Br)c23)CN1C(=O)[C@@H](NC(=O)OC(C)(C)C)C(C)(C)C)C(=O)NS(=O)(=O)C1CC1` [Compound 40], the EC50 in series [1] was < 0.1 µM; in series [2] it was < 100 nM.

Values taken from US8969373B2, “HCV protease inhibitors” (Shanghai Tangrun Pharmaceuticals Co., Ltd., priority 2011, dated 2015).
